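These data come from cells grown in 96-well plates and exposed to compound for 48 hours at five concentrations. The concentration for 50% growth inhibition is given as GI50.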 The source made the active and inactive calls. Rule as the data show it: active = GI50 up to about 1.1 µM and inactive = higher.

The values that follow come from ChEMBL document CHEMBL1201862, “PubChem BioAssay data set” (2004).

What all share (experiment): growth of human tumour cells (NCI), 48 h
For assay [1], the system named is OVCAR-8.
Assay [2] has as its system OVCAR-5.
Assay [3] has as its system HL-60.
Assay [4] deals with MOLT-4.
Assay [5] has as its system HCC 2998.
For assay [6], the system named is NCI-H460.
In assay [7] the test system is Hs-578T.
Assay [8] deals with SK-OV-3.
In assay [9] the test system is HCT-116.
Assay [10] has as its system DU-145.
In assay [11] the test system is T47D.
Assay [12] has as its system UO-31.
Assay [13] relates to SR.
For assay [14], the system named is MCF7.
Assay [15] deals with SN12C.
The subject of assay [16] is PC-3.
Assay [17] concerns K562.
For assay [18], the system named is MDA-MB-231.
Assay [19] deals with U-251.

For `CC1(C)C=C(/C=N/Nc2ccc([N+](=O)[O-])cc2)C(C#N)=C(O)C1(C#N)C#N`, the GI50 in [1], in assay [2], in assay [3], in assay [4], in assay [5] and in assay [6] was > 100 µM (inactive) throughout. The GI50 in assay [7], in assay [8], in assay [9], in assay [10], in assay [11] and in assay [12] was > 100 µM (inactive) throughout. Also, the GI50 in assay [13], in [14], in [15], in [16], in assay [17] and in [18] was > 100 µM (inactive) in each case. The GI50 in [19] was > 100 µM (inactive).
In the case of `CCOC(=O)C(Cc1cccn1C(=O)OC(C)(C)C)[N+](=O)[O-]` (stereo unspecified), the GI50 in assay [1] is 31.7 µM (inactive); in assay [2], 23.8 µM (inactive); in [3], 21.1 µM (inactive); in [4] it was 20 µM (inactive); in [5], 21 µM (inactive); in assay [6], 24.3 µM (inactive). For the same compound, the GI50 is 29.9 µM (inactive) in assay [7]; > 100 µM (inactive) in assay [8]; 20.9 µM (inactive) in [9]; 26.9 µM (inactive) in assay [10]; 33.4 µM (inactive) in assay [11]; 21.2 µM (inactive) in assay [12]. Further, the GI50 was 19 µM (inactive) in assay [13]; 37.7 µM (inactive) in assay [14]; 23.9 µM (inactive) in assay [15]; 20.7 µM (inactive) in assay [16]; 24.7 µM (inactive) in [17]; 19 µM (inactive) in [18]. Further, the GI50 in assay [19] was 20.8 µM (inactive).
For the compound `Cc1c(/C=N/NC(=S)Nc2ccc(Cl)cc2)c(=O)n(-c2ccccc2)n1C`, the GI50 was 24.9 µM (inactive) in [1]; > 56.5 µM (inactive) in assay [2]; > 100 µM (inactive) in assay [3]; > 60.8 µM (inactive) in assay [4]; > 100 µM (inactive) in [5]; 25.4 µM (inactive) in assay [6]. Further, the GI50 in assay [7] was 18.3 µM (inactive); in assay [8], 18.2 µM (inactive); in assay [9], 24.9 µM (inactive); in [10], 42.7 µM (inactive); in [11], 46.6 µM (inactive); in assay [12] it was 32.1 µM (inactive). Moreover, the GI50 in assay [13] was 4.93 µM (inactive); in assay [14] it was 19.8 µM (inactive); in [15] it was > 82.6 µM (inactive); in assay [16] it was > 52.1 µM (inactive); in assay [17], > 100 µM (inactive); in [18], 0.637 µM (active). Besides, the GI50 in [19] is 15.5 µM (inactive).
With `Nc1ccn([C@H]2CO[C@@H](CO)O2)c(=O)n1`, the GI50 in assay [1] was 1.51 µM (inactive); in assay [2], 27.9 µM (inactive); in assay [3], 0.252 µM (active); in assay [4], 0.28 µM (active); in assay [5], 33.7 µM (inactive); in assay [6] it was 1.58 µM (inactive). In addition, the GI50 in assay [7] was > 100 µM (inactive); in [8], 3.77 µM (inactive); in [9], 1.39 µM (inactive); in assay [10], 0.0658 µM (active); in assay [11], > 35.6 µM (inactive); in [12] it was 1.57 µM (inactive). For the same compound, the GI50 is 1.49 µM (inactive) in [13]; 1.48 µM (inactive) in assay [14]; 1.95 µM (inactive) in assay [15]; 1.39 µM (inactive) in assay [16]; 26.1 µM (inactive) in assay [17]; > 55.7 µM (inactive) in [18]. Further, the GI50 in assay [19] is 10.5 µM (inactive).
